Test [1] concerns BMP signaling (phospho-SMAD1). The test can be described thus: Western blot of BMP signaling (phospho-SMAD1) in DMH1-treated A375 cells. The class given is cell-based, human. Conditions: 10 μM DMH1, Western blot. As to the method:
Protein extracts were prepared as previously described (S. D. Epstein LB, Hunte-McDonough B, harris C A, Cytokines: A pratical approach (Balkwill F R., ed). 81-93 (1991)). Extracts were separated on 12% SDS-PAGE gels. Blots were probed with primary antibodies (GDF6 (Sigma PRS4691; 1:1000), phospho-SMAD1/5/8 (Cell Signaling 13820; 1:1000), SMAD1 (Cell Signaling 9743; 1:500), Total SMAD1/5/8 (Santa Cruz sc-6031-R; 1:1000), FLAG (Sigma F3165, 1:2000), GAPDH (Abcam 8245; 1:2000)) overnight at 4° C., washed five times in TBS plus 0.1% Tween (TBST) and then incubated with the appropriate HRP-conjugated secondary antibody (Jackson Labs) for 1 hour at room temperature. Membranes were washed five times in TBST and visualized on autoradiography film after incubating with ECL reagent (Supersignal West Pico or Supersignal West Femto; Thermo Scientific).
In general terms: A western blot detects proteins with antibodies after separation by electrophoresis.

Test [2] relates to A375 melanoma cells. The test can be described thus: growth curves by direct cell counting, A375. It is filed as cell-based, human. The settings on record: 10 μM DMH1 vs control media. As to the method:
(§1) For growth curves 50,000 live cells were seeded per well in a 6-well tissue culture plate on day 0. The numbers of live cells were calculated every day using an automated cell counter (Nexcelom Bioscience Cellometer Auto T4) following standard procedures. All assays were performed with technical replicates. For clonogenic assays, 3,000 live cells were seeded in a 10 cm tissue culture plate. After 3 weeks, colonies were fixed and stained using bromophenol blue in acetone. ImageJ was used to quantify the number of colonies. In assays with DMH1 treatment, control or DMH1-containing media was replaced every other day. For soft agar assays a 0.5% bottom layer (1:1 with 1% agar and 2×DMEM with 20% FBS) and a 0.3% top layer (1:1 with 0.6% agar and 2×DMEM with 20% FBS) were used. 3,000 live cells per well of a 6-well tissue culture plate were added in the top layer. Media was added initially then replaced every 3 days. After 3 weeks, colonies were stained with nitroblue tetrazolium chloride overnight at 37° C. Once stained, individual wells were photographed, and ImageJ was used to count the number of colonies. All these assays were done in triplicate, and experiments were repeated at least twice. A representative image of each has been shown.

The test system of the next test is SKMEL28 melanoma cells. In words: growth curves by direct cell counting, SKMEL28. It is filed as cell-based, human. The settings on record: SKMEL28 cells treated with DMH1 vs control. On the procedure:
as §1

Test [3] concerns A375 melanoma cells. In words: clonogenic growth / colony formation assay. The class given is cell-based, human. The settings on record: A375-EMPTY vs A375-SMAD1DVD cells treated with DMH1. On the procedure:
as §1

The test system of test [4] is A375 melanoma cells. The test can be described thus: A375 mouse xenografts treated with DMH1, tumor volume. It is filed as in vivo. The settings on record: 25 mg/kg DMH1 intraperitoneally every other day vs vehicle. An excerpt: All animal protocols were approved by the UMMS Institution Animal Care and Use Committee (A-2016, A-2171). Mice were randomly allocated to individual experimental groups. No blinding was done as animal groups were identified by tagging and cage labeling. Animals were excluded, according to pre-established criteria, if the tumor volume reached>1,000 mm^3; if tumor size or location affected the mobility or general health of animal, the animal was euthanized and excluded from the experiment or the complete experiment was terminated. A375 cells stably expressing an EGFP or GDF6 or SMAD1 shRNA and/or empty vector or GDF6-expressing vector or SMAD1DVD-overexpressing vector were subcutaneously injected into the flanks of 6-8-week-old BALB/c nu/nu female mice (Taconic Farms) to produce orthotopic primary tumor. Primary tumor growth was monitored every 3 days with calipers, and the tumor volume was calculated as described previously (C. Gazin, N. Wajapeyee, S. Gobeil, C. M. Virbasius, M. R. Green, An elaborate pathway required for Ras-mediated epigenetic silencing. Nature 449, 1073-1077 (2007)). For GDF6 knockdown, SMAD1 knockdown and epistasis experiments, […] live cells were injected. For GDF6 overexpression experiments, 1×10^6 live cells were injected. […] The growth of the tumor was monitored as described above. […]

A further test has as its system MeWo melanoma cells. In words: proliferation of GDF6-knockdown cells supplemented with recombinant GDF6 protein. It is filed as cell-based, human. The settings on record: MeWo cells treated with shRNAs targeting GDF6, recombinant GDF6 protein added to culture media.

This is an account of results in patent US20200246438A1, “TARGETING GDF6 AND BMP SIGNALING FOR ANTI-MELANOMA THERAPY” (UNIVERSITY OF MASSACHUSETTS, priority 2015, published 2020).

Entries after “also recorded” stand apart in the source; their conditions may differ.

As to `CC(C)Oc1ccc(-c2cnc3c(-c4ccnc5ccccc45)cnn3c2)cc1` [DMH1], the “level of phospho-SMAD1 relative to total SMAD protein” value in test [1] is on record as “reduced level of phospho-SMAD1”. Also, the “cell growth (growth curves)” value in the test with A375 melanoma cells [2] is “grew more slowly; also recorded: inhibits A375 melanoma cell growth”; in the test with SKMEL28 melanoma cells, “grew more slowly”. In addition, the “growth defects caused by DMH1 in SMAD1DVD-expressing cells (colony formation)” value in the test with A375 melanoma cells [3] is “reversed by SMAD1DVD”. In addition, the “tumor volume / tumor growth” value in the test with A375 melanoma cells [4] was “smaller tumors arose and grew more slowly; also recorded: decreased tumorigenicity; also recorded: abrogates melanoma growth”.

B1: recombinant GDF6 protein: recombinant GDF6 protein added to culture media; soluble, extracellular BMP ligand (BMP13) (protein, UniProt Q6KF10 336-455, looked up)
Growth/differentiation factor …: TAFASRHGKRHGKKSRLRCSKKPLHVNFKELGWDDWIIAPLEYEAYHCEGVCDFPLRSHLEPTNHAIIQTLMNSMDPGSTPPSCCVPTKLTPISILYIDAGNNVVYKQYEDMVVESCGCR
On to B1, for which the “proliferation of GDF6-knockdown cells” value in the test on MeWo melanoma cells is on record as “restored”; with MeWo melanoma cells (listed as recombinant GDF6) it was “able to sustain their proliferation”.
